This data set can be described thus: Analytical data of the compound obtained: water solubility. Type of data set: physicochemical. The settings on record: product of Example 1, white powder.

Data on one compound can be found in patent US6693215B2, “Process for the preparation of salts of L-carnitine and alkanoyl L-carnitine with mucic acid” (Sigma-Tau Industrie Farmaceutiche Riunite S.p.A., priority 2002, dated 2004).

For the compound `CC(=O)OC(CC(=O)O)C[N+](C)(C)C.CC(=O)OC(CC(=O)O)C[N+](C)(C)C.O=C([O-])C(O)C(O)C(O)C(O)C(=O)[O-]` [Example 1, acetyl L-carnitine mucate (2:1)], the Water solubility result is given as “Poorly soluble”.
